{
  "source": "patent US10466253B2",
  "about": "“Molecular flux rates through critical pathways measured by stable isotope labeling in vivo, as biomarkers of drug action and disease activity” (The Regents of the University of California, priority 2004, dated 2019)",
  "key": {"liver cells": {"test_system": "liver cells", "assay": "Liver cell proliferation under carbon tetrachloride treatment (2H2O labeling)", "assay_type": "in vivo, Swiss Webster mice", "details": "IP injections over 7 days, increasing doses, concurrent 2H2O", "protocol": "FIG. 13 depicts in vivo dose response of liver cell proliferation over 7 days of carbon tetrachloride treatment. Swiss Webster mice were given IP injections of CCl4 over 7 days concurrent with ^2H2O.\nMice are given CCl4 i.p. twice weekly for up to 4 weeks, and continuous oral ^2H2O is given throughout, following an i.p. bolus of ^2H2O. Livers are perfused in situ with saline to minimize blood cell contamination. Livers are homogenized and DNA from 5-mg aliquots is analyzed for ^2H incorporation by gas chromatography/mass spectrometry analysis, after isolation and hydrolysis of genomic DNA, as described in Example 1, supra. Livers are collected 4 days after the last dose of CCl4. The cell proliferation rate can then be calculated from the enrichment in the DNA of the target cell compared to measured body water enrichment or to a reference cell type which is fully replaced.\nDNA is extracted from a liver sample, either by biopsy or liver homogenate. Liver cell proliferation can be determined on a sample a small as 2 mg (400,000 cells). The use of total liver, rather than isolated hepatocytes, allows for efficient scale-up and the sample processing can be adapted to a 96-well automated system for extremely high throughput. Total liver cell proliferation will be compared to the measured proliferation of isolated hepatocytes, and non-parenchymal cells for validation. […]"}, "liver collagen synthesis": {"test_system": "liver collagen synthesis", "assay": "Liver collagen synthesis in CCl4-induced liver fibrosis", "details": "for rate of liver collagen synthesis in CCl4-treated mice: CCl4-induced liver fibrosis"}, "SW 1753 cells": {"test_system": "SW 1753 cells", "assay": "DNA methylation in cultured tumor cells (2H3-methyl methionine labeling, GC-MS of methylcytosine)", "assay_type": "cell-based", "details": "for inhibition at 0.25 µM: read-out: inhibition of methylation (reduction)"}, "bone marrow": {"test_system": "bone marrow", "assay": "Bone marrow proliferation in tumor-bearing mice over 5 days of chemotherapy", "assay_type": "in vivo, female balb/C mice", "details": "Gem 125 mg/kg every other day, HU 500 mg/kg daily"}, "[1]": {"test_system": "EMT7 mouse mammary carcinoma cells", "assay": "In vivo tumor cell proliferation over 5 days of chemotherapy", "set-up": "species or system female balb/C mice", "details": "Gem 125 mg/kg every other day, HU 500 mg/kg daily"}, "[2]": {"assay": "Tolerability of maintained 2H2O body water enrichment", "assay_type": "in vivo, humans and experimental animals", "details": "1-10% of total body water labeled, weeks or months; >100 human subjects", "text": "Relatively high body water enrichments of ^2H2O (e.g., 1-10% of the total body water is labeled) may be achieved relatively inexpensively using the techniques of the invention. […] This finding in a large number of human subjects (>100 people) is contrary to previous concerns about vestibular toxicities at high doses of ^2H2O. The Applicant has discovered that as long as rapid changes in body water enrichment are prevented (e.g., by initial administration in small, divided doses), high body water enrichments of ^2H2O can be maintained with no toxicities. For example, the low expense of commercially available ^2H2O allows long-term maintenance of enrichments in the 1-5% range at relatively low expense (e.g., calculations reveal a lower cost for 2 months labeling at 2% ^2H2O enrichment, and thus 7-8% enrichment in the alanine precursor pool, than for 12 hours labeling of ^2H-leucine at 10% free leucine enrichment, and thus 7-8% enrichment in leucine precursor pool for that period)."}, "[3]": {"test_system": "hippocampal neuroprogenitor cells", "assay": "Hippocampal neuroprogenitor cell proliferation (2H2O labeling of DNA, GC/MS)", "assay_type": "in vivo, male 129SvEv mice", "protocol": "FIG. 7 depicts the effects of chronic imipramine treatment on hippocampal neuroprogenitor cell proliferation in male 129SvEv mice. […] Mice received 3 weeks of treatment with imipramine (20 mg/kg/day) in drinking water and were labeled with 10% ^2H2O during the last 3 days of treatment. Data represent mean±SD, n=4 per group.\nFIG. 8 depicts the effects of chronic fluoxetine treatment on hippocampal neuroprogenitor cell proliferation in male 129SvEv mice. […] Mice received 2 weeks of treatment with fluoxetine (10 mg/kg/day) in drinking water and were labeled with 10% ^2H2O during the last week of treatment.\nDNA is then isolated from the tissue or cell of interest using a Qiagen kit (Qiagen, Valencia, Calif.), following the manufacturer's protocol. Isolated DNA, eluted in water, is adjusted to pH 9-10 and hydrolyzed enzymatically; deoxyribose is released selectively from purine (dA/dG) deoxynucleotides and converted to the pentane tetraacetate derivative. Alternatively, a pentafluorobenzyl derivative is prepared by reaction with excess pentafluorobenzyl hydroxylamine under acidic conditions, followed by acetylation with acetic anhydride. Either type of derivative is subsequently extracted with an organic solvent, dried with sodium sulfate, and analyzed by GC/MS as described, supra. […]"}, "[4]": {"test_system": "bone marrow cells (total, lymphoid, myeloid, other)", "assay": "Bone marrow cell subset proliferation after hydroxyurea (myelosuppression)"}, "mature neurons": {"test_system": "mature neurons", "assay": "Proliferation of mature neurons (neurogenesis; flow cytometry isolated neurons)", "assay_type": "in vivo", "details": "imipramine-treated vs normal adult mice", "text": "FIG. 27 depicts the proliferation of mature neurons in normal and antidepressant (imipramine)-treated adult mice. Neurons were isolated by flow cytometry and analyzed as described in Example 2, infra.\nAnimals are sacrificed, brain is removed and the hippocampus is dissected out. […] Different durations of label administration can be used to differentiate between the kinetics of rapidly proliferating cells, such as the progenitor cell population, compared to the slower rate of label incorporation in neuronal cells. In order to assess neurogenesis directly, ^2H2O-labeled […] are sacrificed, the brain is removed, the hippocampus is dissected out and cut into 0.5 mm slices followed by digestion/dissociation with papain and trypsin. The isolated cells are stained for neuronal markers and sorted by flow cytometry. DNA is isolated and labeling is measured as described, supra."}, "[5]": {"test_system": "endothelial cells from xenograft tumors", "assay": "Tumor endothelial cell proliferation in xenograft tumors (angiogenesis)", "assay_type": "in vivo, Balb/c Nu-/Nu- mice", "details": "two weeks drug treatment; vs vehicle (saline)/untreated group", "protocol": "FIG. 18 depicts proliferation of endothelial cells from xenograft tumors in mice treated with an anti-angiogenic drug (Avastin) or a vehicle (saline). Endothelial cell proliferation is suppressed in animals treated with the drug.\nThe kinetics of angiogenesis are measured in liver and tumor xenografts. Balb/c Nu−/Nu− mice are transplanted with human breast tumor cells. After labeling with ^2H2O, individual animals are sacrificed, and both tumor tissue and liver tissue are harvested from the same animal. The tissue is then digested with collagenase (1 mg/mL) into a single cell suspension. Endothelial cells are enriched by Percoll gradient centrifugation, followed by FACS (sorting on isolection and CD31 positive cells). The proliferation rate of tumor endothelial cells, as well as liver endothelial cells is then measured by purifying, processing, derivatizing, and analyzing the DNA from the isolated endothelial cells, as described in example 2, supra."}, "microglia": {"test_system": "microglia", "assay": "Microglial proliferation assay of neuroinflammation (2H2O labeling, FACS-isolated microglia)", "assay_type": "in vivo, mice", "details": "LPS i.p. (1 and 4 mg/kg every other day in FIG. 14); vs control; p<0.05 / p<0.01 ANOVA/Tukey", "protocol": "FIG. 14 depicts microglial response to the neuroinflammatory toxin lipopolysacharride (LPS). LPS is administered every other day to mice intraperitoneally at the two doses indicated (1 and 4 mg/kg body weight). ^2H2O was administered concurrently. Some animals were harvested at each of the indicated time points, and microglia were isolated and analyzed for deuterium incorporation. […] Error bars indicate standard deviation.\nFIG. 15 depicts the effects of two anti-inflammatory chemotherapeutic agents (dexamethasone and minocycline) on microglial proliferation. Mice were given ^2H2O and either intraperitoneal lipopolysaccharide (LPS) to induce neuroinflammation, or a vehicle (control). Mice given LPS were treated with either a vehicle or dexamethasone or minocycline. Microglia were then isolated and analyzed for deuterium incorporation as described herein.\nMice are labeled with ^2H2O for an appropriate period. Mice are anesthetized and perfused with 10 mL ice cold PBS (trans-cardiac perfusion). Brains are immediately harvested and placed on ice in cold PBS. […]\nThe resulting cells are stained with the macrophage specific markers F4/80 and CD11b, fixed in 4% paraformaldehyde (PFA), and then isolated by FACS. […] DNA is extracted from sorted cells, hydrolyzed, derivatized, and analyzed by GC/MS as described in Example 2, supra. […]"}, "cerebral cortical tissue": {"test_system": "cerebral cortical tissue", "assay": "Cerebral cortical tissue/cell turnover (2H2O labeling of cortical DNA)", "details": "high dose of LPS"}, "[6]": {"details": "single dose 500 mg/kg i.p., 8% 2H2O for subsequent 24 hours, vs vehicle"}},
  "note": "“Also recorded” adds a separate entry of the source. Like-named read-outs stand apart in the source and are kept apart here.",
  "data": [
    {"molecule": "ClC(Cl)(Cl)Cl", "note": "[CCl4, carbon tetrachloride]", "values": [
      {"measurement": "total liver cell turnover (proliferation of liver cells)", "setting": "liver cells", "result": "increased proliferation of liver cells"},
      {"measurement": "collagen synthesis in mouse liver", "setting": "liver collagen synthesis; fibrotic agent alone", "result": "increases collagen synthesis"}
    ]},
    {"molecule": "Nc1ncn([C@H]2C[C@H](O)[C@@H](CO)O2)c(=O)n1", "note": "[Decitabine, decitabine]", "values": [
      {"measurement": "inhibition at 0.25 µM", "setting": "SW 1753 cells", "result": 70, "unit": "%"}
    ]},
    {"molecule": "Nc1ccn([C@@H]2O[C@H](CO)[C@@H](O)C2(F)F)c(=O)n1", "note": "[Gem, gemcitabine]", "values": [
      {"measurement": "bone marrow proliferation", "setting": "bone marrow", "result": "suppressed"},
      {"measurement": "tumor cell proliferation", "setting": "[1]", "result": "suppressed"},
      {"measurement": "tumor cell proliferation", "setting": "[1]; listed as gemcitabine", "result": "reduced"}
    ]},
    {"molecule": "[2H]O[2H]", "note": "[^2H2O]", "values": [
      {"measurement": "toxicity of maintained body water enrichment", "setting": "[2]", "result": "without any evidence of toxicity"}
    ]},
    {"molecule": "Nc1ncn([C@@H]2O[C@H](CO)[C@@H](O)[C@H]2O)c(=O)n1", "note": "[azacytidine, azacitidine]", "values": [
      {"measurement": "inhibition at 0.25 µM", "setting": "SW 1753 cells; 250 nM, SW 1753 cells, DMEM 10% FBS with 2H3-methyl methionine", "result": "< 10", "unit": "%"},
      {"measurement": "fraction of methylcytosine that is new", "setting": "SW 1753 cells; 24-hour labeling period, 125, 250, 500 nM", "result": "suppressed"}
    ]},
    {"molecule": "CNCCC(Oc1ccc(C(F)(F)F)cc1)c1ccccc1", "note": "(stereo not shown) [fluoxetine]", "values": [
      {"measurement": "hippocampal neuroprogenitor cell proliferation", "setting": "[3]; fluoxetine 10 mg/kg/day in drinking water, 2 weeks, 10% 2H2O during last week, p<0.05 vs vehicle", "result": "increases progenitor cell proliferation; also recorded: significant increase"}
    ]},
    {"molecule": "NC(=O)NO", "note": "[hydroxyurea]", "values": [
      {"measurement": "bone marrow proliferation across subsets (TBM, lymphoid, myeloid, other)", "setting": "[4]; in three cases (indicated by **)", "result": "suppressed bone marrow proliferation"},
      {"measurement": "proliferation of lymphoid bone marrow cells", "setting": "[4]; [6]", "result": "statistically significant suppressive effect"},
      {"measurement": "proliferation of other bone marrow cells", "setting": "[4]; [6]", "result": "statistically significant suppressive effect"},
      {"measurement": "proliferation of total bone marrow (TBM)", "setting": "[4]; [6]", "result": "statistically significant suppressive effect"},
      {"measurement": "bone marrow proliferation", "setting": "bone marrow", "result": "suppressed"},
      {"measurement": "tumor cell proliferation", "setting": "[1]", "result": "reduced"},
      {"measurement": "tumor cell proliferation", "setting": "[1]; listed as HU", "result": "suppressed"}
    ]},
    {"molecule": "CN(C)CCCN1c2ccccc2CCc2ccccc21", "note": "[imipramine]", "values": [
      {"measurement": "hippocampal neuroprogenitor cell proliferation", "setting": "[3]; imipramine 20 mg/kg/day in drinking water, 3 weeks, 10% 2H2O during last 3 days, vs vehicle", "result": "increases progenitor cell proliferation; also recorded: significant increase"},
      {"measurement": "rate of mature neuron formation", "setting": "mature neurons", "result": "increased formation of mature neurons"},
      {"measurement": "rate of mature neuron formation", "setting": "mature neurons; listed as Imipramine", "result": "increased the rate of mature neuron formation"}
    ]},
    {"molecule": "Avastin: Avastin (Genentech, CA), a known anti-angiogenesis drug", "values": [
      {"measurement": "tumor endothelial cell proliferation rate", "setting": "[5]", "result": "suppressed; also recorded: significantly lower proliferation rate"}
    ]},
    {"molecule": "lipopolysaccharide [LPS]", "values": [
      {"measurement": "microglial proliferation", "setting": "microglia", "result": "increased proliferative response; also recorded: increased proliferation; also recorded: statistically significant and dose-dependent increase"},
      {"measurement": "cortical tissue turnover", "setting": "cerebral cortical tissue", "result": "affected cortical tissue turnover; also recorded: increased cortical cell turnover"}
    ]},
    {"molecule": "Interferon-gamma: anti-fibrotic agent (protein, UniProt P01579 24-161, looked up) Interferon gamma: QDPYVKEAENLKKYFNAGHSDVADNGTLFLGILKNWKEESDRKIMQSQIVSFYFKLFKNFKDDQSIQKSVETIKEDMNVKFFNSNKKKRDDFEKLTNYSVTDLNVQRKAIHELIQVMAELSPAAKTGKRKRSQMLFRG", "values": [
      {"measurement": "rate of liver collagen synthesis in CCl4-treated mice", "setting": "liver collagen synthesis", "result": "reduce the rate of collagen synthesis"},
      {"measurement": "rate of liver collagen synthesis in CCl4-treated mice", "setting": "liver collagen synthesis; listed as interferon-gamma", "result": "suppressed"}
    ]}
  ]
}
